Measured values from PubChem BioAssay (NCI).
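Briefly, cells in 96-well plates were exposed to five compound concentrations for 48 h, and endpoints were estimated by linear interpolation. TGI is the concentration that stops growth completely.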

How the values were obtained:
Test in all cases: inhibition of tumour cell growth, NCI panel, 48 h
[1] = test system: A498 renal
[2] = test system: A549 NSCLC
[3] = test system: ACHN renal
[4] = test system: CCRF-CEM leukemia
[5] = test system: COLO 205 colon
[6] = test system: DLD-1 colon
[7] = test system: DMS 114 small cell lung
[8] = test system: DMS 273 small cell lung
[9] = test system: EKVX NSCLC
[10] = test system: HCC-2998 colon
[11] = test system: HCT-116 colon
[12] = test system: HL-60(TB) leukemia
[13] = test system: HOP-18 NSCLC
[14] = test system: HOP-62 NSCLC
[15] = test system: HOP-92 NSCLC
[16] = test system: HT29 colon
[17] = test system: IGROV1 ovarian
[18] = test system: K-562 leukemia
[19] = test system: KM12 colon
[20] = test system: KM20L2 colon
[21] = test system: LOX IMVI melanoma
[22] = test system: LXFL 529 NSCLC
[23] = test system: M14 melanoma
[24] = test system: M19-MEL melanoma
[25] = test system: MALME-3M melanoma
[26] = test system: MOLT-4 leukemia
[27] = test system: NCI-H226 lung
[28] = test system: NCI-H23 lung
[29] = test system: NCI-H460 lung
[30] = test system: NCI-H522 lung
[31] = test system: OVCAR-3 ovarian
[32] = test system: OVCAR-4 ovarian
[33] = test system: OVCAR-5 ovarian
[34] = test system: OVCAR-8 ovarian
[35] = test system: RPMI-8226 leukemia
[36] = test system: RXF 393 renal
[37] = test system: SF-268 CNS
[38] = test system: SF-295 CNS
[39] = test system: SF-539 CNS
[40] = test system: SK-MEL-2 melanoma
[41] = test system: SK-MEL-28 melanoma
[42] = test system: SK-OV-3 ovarian
[43] = test system: SN12C renal
[44] = test system: SNB-19 CNS
[45] = test system: SNB-78 CNS
[46] = test system: SR leukemia
[47] = test system: SW-620 colon
[48] = test system: TK-10 renal
[49] = test system: U251 CNS
[50] = test system: UACC-257 melanoma
[51] = test system: UO-31 renal
[52] = test system: XF 498 CNS

CC(C)(C)[Si](OC1CC(n2cnc3c(N)ncnc32)OC1CO)(c1ccccc1)c1ccccc1 (configuration not stated)
TGI [1]: 32.9 µM | TGI [2]: 30 µM | TGI [3]: 31.8 µM | TGI [4]: > 100 µM | TGI [5]: 88.1 µM | TGI [6]: 30 µM | TGI [7]: 54.2 µM | TGI [8]: 35.8 µM | TGI [9]: 41.7 µM | TGI [10]: > 100 µM | TGI [11]: 31.3 µM | TGI [12]: > 100 µM | TGI [13]: > 100 µM | TGI [14]: 45.3 µM | TGI [15]: 47.3 µM | TGI [16]: 30.2 µM | TGI [17]: 48 µM | TGI [18]: > 100 µM | TGI [19]: 38.9 µM | TGI [20]: 29.5 µM | TGI [21]: 31.7 µM | TGI [22]: > 100 µM | TGI [23]: > 100 µM | TGI [24]: 42.9 µM | TGI [25]: 45.9 µM | TGI [26]: > 100 µM | TGI [27]: 27.1 µM | TGI [28]: 28 µM | TGI [29]: 30.7 µM | TGI [30]: 30 µM | TGI [31]: 33.9 µM | TGI [32]: 28.5 µM | TGI [33]: 34.8 µM | TGI [34]: 33.3 µM | TGI [35]: 43.9 µM | TGI [36]: 29.5 µM | TGI [37]: 35 µM | TGI [38]: 30.5 µM | TGI [39]: 36.7 µM | TGI [40]: 36.1 µM | TGI [41]: 41.1 µM | TGI [42]: 32.7 µM | TGI [43]: 43.3 µM | TGI [44]: 50 µM | TGI [45]: > 100 µM | TGI [46]: 43.8 µM | TGI [47]: 34.1 µM | TGI [48]: 53.4 µM | TGI [49]: 34.1 µM | TGI [50]: > 100 µM | TGI [51]: 68.1 µM | TGI [52]: 51.3 µM
